According to patent US11766470B2, “Manufacture, formulation and dosing of apraglutide” (VectivBio AG, priority 2020, dated 2023):
Where “and” joins values, the source holds several entries; their conditions need not be identical. Equal values may be shown once. Square brackets hold non-standard residues; d marks the D form. Peptide text beside a SMILES is read from it. ξ: configuration not given here. Ile(3ξ) = CCC(C)[C@H](N)C(=O)O; Thr(3ξ) = CC(O)[C@H](N)C(=O)O; Nle = CCCC[C@H](N)C(=O)O

System: healthy adult volunteers
Assay: Multiple dose study in healthy volunteers (Examples 4 and 7), pharmacodynamics: plasma citrulline, Bristol stool scale, body weight
Assay type: in vivo, human
Protocol: The endogenous marker citrulline was selected to assess the pharmacodynamic effect of apraglutide. Citrulline was detected in all baseline and post-dose samples. Three baseline citrulline samples were obtained during two baseline visits between screening and the first dosing day and before dosing on the first dosing day. […] At baseline, the mean citrulline range was 5.3825-5.6207 μg/mL for placebo, 5.3900-6.2028 μg/mL for 1 mg apraglutide, 4.8983-5.3023 μg/mL for 5 mg apraglutide and 5.0730-5.4690 μg/mL for 10 mg apraglutide. In the placebo group, the mean citrulline concentration remained relatively stable over the trial, ranging from 4.9735 to 5.8253 μg/mL.
In short, the first contrast tested compared the mean Rpre-dose at the first time point (week 1) to the pooled mean Rpre-dose over all remaining time points (week 2 to 6). The second contrast compared the mean at week 2 to the pooled mean over week 3 to 6, etc. Testing continued until the contrast was not statistically significant. The mean Rpre-dose at week 6 for 10 mg against mean Rpre-dose over week 5 (0.8720, 95% CI: 0.1590; 1.5850 and p=0.0172) was statistically significant.
Besides citrulline, the Bristol stool scale and body weight were assessed as pharmacodynamic endpoints. In contrast to citrulline and weight, the Bristol stool scale is a discrete variable. Subjects assessed their stool in the past 24 hours using the Bristol stool scale ranging from constipation (type 1) to diarrhea (type 7). No stool in the past 24 hours was recorded as zero. As two subjects (assigned to either 1 or 5 mg) reported no stool preceding the first dose, the screening Bristol stool scale score was also taken into account when determining the baseline Bristol stool scale score.
Citrulline, BSS and weight data are analyzed with a mixed model analysis of variance with fixed factors treatment, time and treatment by time, random factor subject, and the average prevalue as covariate. The average pre-value was calculated from all pre-values after screening and before dosing, except for BSS, where the screening value was also used to calculate the average baseline.
For all pharmacodynamic endpoints (citrulline, Bristol stool scale and weight), the pre-value has been used as covariate. The average pre-value was calculated from all pre-values after screening and before dosing, except for the Bristol stool scale, where the screening value was also used to calculate the average baseline. The average pre-value of citrulline was also used as covariate in the MCP-MOD, except in the Sigmoid Emax model. This was addressed by subtracting the pre-value times the slope of the linear model of the MCP part from the values of week 6.

[1] = 1 mg, over the whole trial period
[2] = 5 mg, over the whole trial period
[3] = 10 mg, over the whole trial period (N = 5)

CCCC[C@H](NC(=O)[C@H](CCC(=O)O)NC(=O)[C@H](CC(=O)O)NC(=O)[C@H](CO)NC(=O)[C@H](Cc1ccccc1)NC(=O)[C@H](CO)NC(=O)CNC(=O)[C@H](CC(=O)O)NC(=O)CNC(=O)[C@@H](N)Cc1c[nH]cn1)C(=O)N[C@H](Cc1ccccc1)C(=O)N[C@H](C(=O)N[C@H](C(=O)N[C@@H](CC(C)C)C(=O)N[C@@H](CC(=O)O)C(=O)N[C@@H](CC(C)C)C(=O)N[C@@H](CC(C)C)C(=O)N[C@@H](C)C(=O)N[C@@H](C)C(=O)N[C@@H](CCCNC(=N)N)C(=O)N[C@@H](CC(=O)O)C(=O)N[C@@H](Cc1ccccc1)C(=O)N[C@H](C(=O)N[C@@H](CC(N)=O)C(=O)N[C@@H](Cc1c[nH]c2ccccc12)C(=O)N[C@@H](CC(C)C)C(=O)N[C@H](C(=O)N[C@@H](CCC(N)=O)C(=O)N[C@H](C(=O)N[C@@H](CCCCN)C(=O)N[C@H](C(=O)N[C@H](C(=O)N[C@@H](CC(=O)O)C(N)=O)C(C)O)C(C)CC)C(C)O)C(C)CC)C(C)CC)C(C)CC)C(C)O (stereo partly drawn) [apraglutide, L-histidyl-glycyl-L-aspartyl-glycyl-L-seryl-L-phenylalanyl-L-seryl-L-aspartyl-L-glutamyl-L-norleucyl-D-phenylalanyl-L-threonyl-Lisoleucyl-L-leucyl-L-aspartyl-L-leucyl-L-leucyl-L-alanyl-L-alanyl-L-arginyl-L-aspartyl-L-phenylalanyl-L-isoleucyl-L-asparaginyl-Ltryptophanyl-L-leucyl-L-isoleucyl-L-glutaminyl-L-threonyl-L-lysyl-L-isoleucyl-L-threonyl-Laspartic acid amide] (H-HGDGSFSDE[Nle][dF][Thr(3ξ)][Ile(3ξ)]LDLLAARDF[Ile(3ξ)]NWL[Ile(3ξ)]Q[Thr(3ξ)]K[Ile(3ξ)][Thr(3ξ)]D-NH2)
Difference between mean Rmax over the whole trial and Rmax after last dose (1 mg): 0.1016 µg/mL
Bristol stool scale with zeroes set to missing, estimate of the difference (1 mg - 5 mg): 0.2
Bristol stool scale, estimate of the difference (1 mg - 5 mg): −0.1
Citrulline, estimate of the difference (1 mg - 5 mg): 0.9429 µg/mL
Weight, estimate of the difference (1 mg - 5 mg): -0.115 kg
Bristol stool scale with zeroes set to missing, estimate of the difference (1 mg - 10 mg): 0.1
Bristol stool scale, estimate of the difference (1 mg - 10 mg): 0.3
Citrulline, estimate of the difference (1 mg - 10 mg): 1.3198 µg/mL
Weight, estimate of the difference (1 mg - 10 mg): 0.419 kg
No stool in the past 24 hours, number of reports (1 mg group (2 subjects)): 6 times
Highest mean citrulline value following the first weekly SC dose (1 mg, after four days): 6.3920 µg/mL
Citrulline Rtmax, median (1 mg, after last dose 6): 2.0 days
Citrulline Rpre-dose, arithmetic mean ± SD (1 mg, last dose 1): 5.8075 ± 1.3328 µg/mL
Citrulline Rpre-dose, geometric mean (1 mg, last dose 1): 5.6723 µg/mL
Citrulline Rpre-dose, arithmetic mean ± SD (1 mg, last dose 2): 6.2605 ± 1.2331 µg/mL
Citrulline Rpre-dose, geometric mean (1 mg, last dose 2): 6.1526 µg/mL
Citrulline Rpre-dose, arithmetic mean ± SD (1 mg, last dose 3): 6.4913 ± 1.8297 µg/mL
Citrulline Rpre-dose, geometric mean (1 mg, last dose 3): 6.2752 µg/mL
Citrulline Rpre-dose, arithmetic mean ± SD (1 mg, last dose 4): 6.0050 ± 1.5790 µg/mL
Citrulline Rpre-dose, geometric mean (1 mg, last dose 4): 5.8213 µg/mL
Citrulline Rpre-dose, arithmetic mean ± SD (1 mg, last dose 5): 6.4128 ± 1.8032 µg/mL
Citrulline Rpre-dose, geometric mean (1 mg, last dose 5): 6.2097 µg/mL
Citrulline Rmax, arithmetic mean ± SD (1 mg, last dose 6): 7.1702 µg/mL
Citrulline Rmax, geometric mean (1 mg, last dose 6): 7.0069 µg/mL
Citrulline Rpre-dose, arithmetic mean ± SD (1 mg, last dose 6): 6.3120 ± 1.6694 µg/mL
Citrulline Rpre-dose, geometric mean (1 mg, last dose 6): 6.1166 µg/mL
Citrulline Rmax, arithmetic mean ± SD (1 mg, last dose 6, listed as Apraglutide): 7.1702 ± 1.6611 µg/mL
Citrulline Rmax, arithmetic mean ± SD [1]: 7.2718 ± 1.6959 µg/mL
Citrulline Rmax, geometric mean [1]: 7.1036 µg/mL
Citrulline Rtmax, median (1 mg, whole trial period, from first dose): 35.9 days
Difference between mean Rmax over the whole trial and Rmax after last dose (5 mg): 0.0973 µg/mL
Bristol stool scale with zeroes set to missing, estimate of the difference (5 mg - 10 mg): −0.0
Bristol stool scale, estimate of the difference (5 mg - 10 mg): 0.5
Citrulline, estimate of the difference (5 mg - 10 mg): 0.3769 µg/mL
Weight, estimate of the difference (5 mg - 10 mg): 0.534 kg
No stool in the past 24 hours, number of reports (5 mg group (4 subjects)): 13 times
Highest mean citrulline value following the first weekly SC dose (5 mg, after four days): 7.1933 µg/mL
Citrulline Rtmax, median (5 mg, after last dose 6): 3.9 days
Citrulline Rpre-dose, arithmetic mean ± SD (5 mg, last dose 1): 6.7695 ± 1.5288 µg/mL
Citrulline Rpre-dose, geometric mean (5 mg, last dose 1): 6.5967 µg/mL
Citrulline Rpre-dose, arithmetic mean ± SD (5 mg, last dose 2): 7.0082 ± 1.1330 µg/mL
Citrulline Rpre-dose, geometric mean (5 mg, last dose 2): 6.9208 µg/mL
Citrulline Rpre-dose, arithmetic mean ± SD (5 mg, last dose 3): 6.6155 ± 1.2790 µg/mL
Citrulline Rpre-dose, geometric mean (5 mg, last dose 3): 6.5109 µg/mL
Citrulline Rpre-dose, arithmetic mean ± SD (5 mg, last dose 4): 6.6227 ± 1.2247 µg/mL
Citrulline Rpre-dose, geometric mean (5 mg, last dose 4): 6.5313 µg/mL
Citrulline Rpre-dose, arithmetic mean ± SD (5 mg, last dose 5): 6.8307 ± 1.2369 µg/mL
Citrulline Rpre-dose, geometric mean (5 mg, last dose 5): 6.7248 µg/mL
Citrulline Rmax, arithmetic mean ± SD (5 mg, last dose 6): 8.1577 µg/mL
Citrulline Rmax, geometric mean (5 mg, last dose 6): 8.0024 µg/mL
Citrulline Rpre-dose, arithmetic mean ± SD (5 mg, last dose 6): 7.2498 ± 1.2461 µg/mL
Citrulline Rpre-dose, geometric mean (5 mg, last dose 6): 7.1475 µg/mL
Citrulline Rmax, arithmetic mean ± SD (5 mg, last dose 6, listed as Apraglutide): 8.1577 ± 1.7108 µg/mL
Citrulline Rmax, arithmetic mean ± SD [2]: 8.2550 ± 1.7807 µg/mL
Citrulline Rmax, geometric mean [2]: 8.0870 µg/mL
Citrulline Rtmax, median (5 mg, whole trial period, from first dose): 38.9 days
Difference between mean Rmax over the whole trial and Rmax after last dose (10 mg): 0.0362 µg/mL
No stool in the past 24 hours, number of reports (10 mg group (1 subject)): 1 time
Steady-state contrast: mean citrulline Rpre-dose at week 6 against week 5 (10 mg, Helmert's approach): 0.8720
Highest mean citrulline value following the first weekly SC dose (10 mg, after 7 days): 7.8487 µg/mL
Citrulline Rtmax, median (10 mg, after last dose 6 (N = 5)): 3.9 days
Citrulline Rpre-dose, arithmetic mean ± SD (10 mg, last dose 1): 7.8487 ± 2.7273 µg/mL
Citrulline Rpre-dose, geometric mean (10 mg, last dose 1): 7.4048 µg/mL
Citrulline Rpre-dose, arithmetic mean ± SD (10 mg, last dose 2): 7.6058 ± 2.3210 µg/mL
Citrulline Rpre-dose, geometric mean (10 mg, last dose 2): 7.2438 µg/mL
Citrulline Rpre-dose, arithmetic mean ± SD (10 mg, last dose 3): 7.5180 ± 2.1369 µg/mL
Citrulline Rpre-dose, geometric mean (10 mg, last dose 3): 7.2331 µg/mL
Citrulline Rpre-dose, arithmetic mean ± SD (10 mg, last dose 4 (N = 5)): 7.2060 ± 2.5488 µg/mL
Citrulline Rpre-dose, geometric mean (10 mg, last dose 4 (N = 5)): 6.8103 µg/mL
Citrulline Rpre-dose, arithmetic mean ± SD (10 mg, last dose 5 (N = 5)): 7.1994 ± 2.5111 µg/mL
Citrulline Rpre-dose, geometric mean (10 mg, last dose 5 (N = 5)): 6.7908 µg/mL
Citrulline Rmax, arithmetic mean ± SD (10 mg, last dose 6 (N = 5)): 8.7254 µg/mL
Citrulline Rmax, geometric mean (10 mg, last dose 6 (N = 5)): 8.2533 µg/mL
Citrulline Rpre-dose, arithmetic mean ± SD (10 mg, last dose 6 (N = 5)): 8.0714 ± 3.0514 µg/mL
Citrulline Rpre-dose, geometric mean (10 mg, last dose 6 (N = 5)): 7.5618 µg/mL
Citrulline Rmax, arithmetic mean ± SD (10 mg, last dose 6 (N = 5), listed as Apraglutide): 8.7254 ± 3.0145 µg/mL
Citrulline Rmax, arithmetic mean ± SD [3]: 8.7616 ± 2.9900 µg/mL
Citrulline Rmax, geometric mean [3]: 8.2953 µg/mL
Citrulline Rt1/2, individual subjects (10 mg, two subjects): 6.5 days and 11.0 days
Citrulline Rtmax, median (10 mg, whole trial period, from first dose (N = 5)): 36.9 days
Time after first dose at which increases in citrulline were observed (1, 5 or 10 mg): 2 days
Bristol stool scale with zeroes set to missing, estimate of the difference (Placebo - 1 mg): −0.6
Bristol stool scale, estimate of the difference (Placebo - 1 mg): −0.9
Weight, estimate of the difference (Placebo - 1 mg): -0.750 kg
Citrulline, estimate of the difference (Placebo - 1 mg, 6 weekly SC doses): 0.3146 µg/mL
Citrulline, estimate of the difference (Placebo - 1 mg, 6 weekly SC doses, listed as Apraglutide): 0.31 [95% CI: −0.4371; μg/mL
Bristol stool scale with zeroes set to missing, estimate of the difference (Placebo - 5 mg): −0.4
Bristol stool scale, estimate of the difference (Placebo - 5 mg): −1.0
Weight, estimate of the difference (Placebo - 5 mg): -0.865 kg
Citrulline, estimate of the difference (Placebo - 5 mg, 6 weekly SC doses): 1.2574 µg/mL
Citrulline, estimate of the difference (Placebo - 5 mg, 6 weekly SC doses, listed as Apraglutide): 1.26 [95% CI: 0.5037; μg/mL
Bristol stool scale with zeroes set to missing, estimate of the difference (Placebo - 10 mg): −0.5
Bristol stool scale, estimate of the difference (Placebo - 10 mg): −0.6
Weight, estimate of the difference (Placebo - 10 mg): -0.331 kg
Citrulline, estimate of the difference (Placebo - 10 mg, 6 weekly SC doses): 1.6343 µg/mL
Citrulline, estimate of the difference (Placebo - 10 mg, 6 weekly SC doses, listed as Apraglutide): 1.63 [95% CI: 0.8809; μg/mL
Variability in citrulline Rmax explained by AUCtau (R squared) (week 6): 26%
Increase of maximum citrulline response per 100 d*ng/mL increase in AUCtau (week 6, regression line): 390 ng/mL
